The results in this text go back to patent publication US20250228984A1, “Metallophore-Radionuclide Complex as Nuclear Imaging Contrast Agents” (priority 2024, published 2025).

A value given as a limit tells only on which side of the number the result lay.

Data set [1] deals with non-fptA expressing organisms. The data set is described as follows: PET/CT imaging and lung biodistribution of Cu-64 Pch in infected mice, non-fptA organisms. Type of data set: in vivo. As for the experimental part:
(§1) In vivo studies were performed using Balb/c mice. On day 1, Pseudomonas aeruginosa (PA01), Klebsiella pneumoniae, E. coli Nissle, E. coli UTI89, or Staphylococcus aureus bacterial concentrations of ˜3×10^6 CFU/mL were prepared via centrifugation at 7 k RPM and washed three times with 1 mL of phosphate-buffered saline (PBS). 100 uL of bacterial concentrates were administered to groups of 3 mice intra-nasally, along with one group receiving 0.9% saline. After 24 hours, Cu-64 Pch was prepared and given retro-orbitally at a dose of ˜150 uCi per mouse. 48 hours after bacterial administration, the mice underwent PET/CT imaging. Immediately after imaging, the mice were sacked, and the lungs harvested for radioactive biodistribution measurements.

A short description of data set [2]: HPLC stability of Cu-64-Pch after incubation in serum. The conditions noted are these: after 24 hours of serum incubation. Type of data set: in vitro ADME. As for the experimental part: Preliminary in vitro data evaluating multiple siderophores with multiple radiometals to understand general binding characteristics was performed. To further evaluate Cu-64 binding affinity with Pch for in vivo applications, in vitro HPLC stability studies were performed to determine the percentage of bound Cu-64-Pch after incubation in serum. Samples were incubated for time points 0, 0.5, 1, 6, and 24. After incubation, samples were prepared for HPLC analysis by adding ˜500 uL of ammonium acetate with ethanol extraction solvent, spun at 12,000 RPM for 5 minutes. The top ⅔ of the supernatant was removed for HPLC analysis. After HPLC stability analysis, multiple HPLC purity studies were performed to determine the relative amount of free copper compared to Pch-bound copper. To prepare for purity analysis, ˜150 uCi of Cu-64 was incubated for 1 hour with varying amounts of 1 mg/mL pyochelin ranging from 0.5 to 10 uL, with ammonium acetate being added to reach a maximum volume of 350 uL. Additional purity studies were conducted using ˜150 uCi of Cu-64 along with 10 uL of 1 mg/mL pyochelin and ammonium acetate, but involved varying incubation periods consisting of 10, 20, 30, 45, and 60 minutes at 37° C. […]

For data set [3], the system named is fptA expressing P. aeruginosa. The data set is described as follows: PET/CT imaging and lung biodistribution of Cu-64 Pch in infected mice, P. aeruginosa. It is filed as in vivo, Pseudomonas aeruginosa. The protocol: as §1
(§2) An additional in vivo study was performed using only PA01 bacteria. In this example, the bacteria were administered via intra-tracheal route, rather than intra-nasal. This route of administration is limited to 20 uL. Similarly, Ga-68 pyochelin studies were performed as follows: on day 1, PA01 was grown overnight to a concentration of ˜3×10^6 CFU/mL. After overnight incubation, the bacteria was washed with PBS and 100 uL was administered intranasally to each mouse. 5 hours after bacterial administration, Ga-68 was prepared and given retro-orbitally at a dose of ˜150-200uCi per mouse. 1 hour after Ga-68 injection, the mice were imaged via PET/CT, followed by euthanasia for biodistribution of the lungs.

Data set [4] can be described thus: iTLC and HPLC characterization of DFO complexes, 64Cu. Type of data set: physicochemical. The conditions noted are these: 37° C. The protocol: (§3) Extensive HPLC and thin-layer chromatography (TLC) analysis of multiple radiometals with pyochelin or DFO were performed. Radiometals were combined with siderophore at ratio of 20 uCi/ug in 50 uL buffer. Buffers consisted of sodium acetate (NaOAc), ammonium acetate, and HEPES at pH 3.5, 5.5, and 7 respectively. Complexation was heated to either 37° C. for one hour or 50° C. for one hour. Gallium-68 was prepared by concentrating the generator eluate in 0.1 M HCl onto a 30 mg Strata-XC cartridge, which was then air dried and the gallium eluted with three 150 uL aliquots of acetone. Reactions with gallium-68 were then carried out by adding 5 μg of siderophore with 50 uL of pH 3.5 sodium acetate and ˜250 uCi of gallium-68 radiometal and incubated at 37° C. for 20 minutes. Reaction products were placed on HPLC at 5-50% acetonitrile for 15 minutes using a kinetex evo C-18 column.

A short description of data set [5]: iTLC and HPLC characterization of DFO complexes, 68Ga. It is filed as physicochemical. The conditions noted are these: for DFO complex, pH 3 / DFO complex, pH 5.5: 68Ga, 37° C. As for the experimental part: as §3
A short description of data set [6]: Radio chromatogram stability of gallium bound Pch in serum. It is filed as in vitro ADME.
In data set [7] the test system is non-fptA expressing organisms. The data set is described as follows: PET/CT imaging and ex vivo biodistribution of Ga-68 pyochelin, non-fptA organisms. Type of data set: in vivo. The conditions noted are these: mice with non-fptA expressing organisms.
The test system of data set [8] is fptA expressing P. aeruginosa. The data set is described as follows: PET/CT imaging and ex vivo biodistribution of Ga-68 pyochelin, P. aeruginosa. It is filed as in vivo, Pseudomonas aeruginosa. The conditions noted are these: mice, bacteria intranasally, probe retro-orbitally ~150-200uCi, PET/CT 1 hour after injection. As for the experimental part:
as §2

Data set [9] is described as follows: Preliminary screen of Cu-64 with different siderophores (complexation). Type of data set: physicochemical. The conditions noted are these: for Cu-64 screen with siderophore, pH 3 / Cu-64 screen with siderophore, pH 5.5 / Cu-64 screen with siderophore, pH 7.0 / Cu-64 screen with siderophore, pH 9: 64Cu. The protocol: Preliminary in vitro data evaluating multiple siderophores with multiple radiometals to understand general binding characteristics was performed. To further evaluate Cu-64 binding affinity with Pch for in vivo applications, in vitro HPLC stability studies were performed to determine the percentage of bound Cu-64-Pch after incubation in serum. Samples were incubated for time points 0, 0.5, 1, 6, and 24. After incubation, samples were prepared for HPLC analysis by adding 500 uL of ammonium acetate with ethanol extraction solvent, spun at 12,000 RPM for 5 minutes. The top 2⁄3 of the supernatant was removed for HPLC analysis. After HPLC stability analysis, multiple HPLC purity studies were performed to determine the relative amount of free copper compared to Pch-bound copper. To prepare for purity analysis, 150 uCi of Cu-64 was incubated for 1 hour with varying amounts of 1 mg/mL pyochelin ranging from 0.5 to 10 uL, with ammonium acetate being added to reach a maximum volume of 350 uL. Additional purity studies were conducted using 150 uCi of Cu-64 along with 10 uL of 1 mg/mL pyochelin and ammonium acetate, but involved varying incubation periods consisting of 10, 20, 30, 45, and 60 minutes at 37° C. Lastly, UV chromatograms of Pch were generated using varying concentrations of Pch in ammonium acetate, consisting of 25, 50, 100, and 200 uL of Pch with ammonium acetate being added to reach 350 uL total volume. All HPLC analysis was conducted using 5-95% acetonitrile gradient over 10 minutes, with a flow rate of 1 mL/min using an Agilent Poroshell 120 EC-C18 column. Extensive HPLC and thin-layer chromatography (TLC) analysis of multiple radiometals with pyochelin or DFO were performed. Radiometals were combined with siderophore at ratio of 20 uCi/ug in 50 uL buffer. Buffers consisted of sodium acetate (NaOAc), ammonium acetate, and HEPES at pH 3.5, 5.5, and 7 respectively. […] Gallium-68 was prepared by concentrating the generator eluate in 0.1 M HCl onto a 30 mg Strata-XC cartridge, which was then air dried and the gallium eluted with three 150 uL aliquots of acetone. Reactions with gallium-68 were then carried out by adding 5 μg of siderophore with 50 uL of pH 3.5 sodium acetate and 250 uCi of gallium-68 radiometal and incubated at 37° C. for 20 minutes. Reaction products were placed on HPLC at 5-50% acetonitrile for 15 minutes using a […] evo C-18 column.

Data set [10] is described as follows: TLC analysis of pyochelin complexation with manganese-52. It is filed as physicochemical. The protocol:
(§4) All radiometals-pyochelin combinations were screened at pH 3.5, 5.5, and 7 at both 37° C. and 50° C. […] (FIG. 4F).
as §3

Data set [11] can be described thus: TLC analysis of pyochelin complexation with titanium-45. Type of data set: physicochemical. The protocol: as §4, §3
Data set [12] is described as follows: TLC analysis of pyochelin complexation with lead-203. It is filed as physicochemical. As for the experimental part: as §4, §3
Data set [13] in a line: TLC analysis of pyochelin complexation with zirconium-89. It is filed as physicochemical. The protocol:
as §4, §3

Data set [14] is described as follows: TLC analysis of pyochelin complexation with gallium-68. It is filed as physicochemical. As for the experimental part:
as §4, §3

Setting [15] is: pH 3.5, 5.5, 7, 37° C. and 50° C.

Consider copper-64 bound pyochelin [Cu-64-Pch], for which the “uptake of probe in the lungs (imaging and radioactive biodistribution)” value in data set [1] (Balb/c mice infected with non-fptA expressing organisms, probe retro-orbitally ~150 uCi) is recorded as “limited uptake”; in data set [3] (Balb/c mice, bacteria intra-nasally, probe retro-orbitally ~150 uCi, PET/CT 48 hours after bacteria), “increased uptake”. In addition, the “transport of probe into bacterial cells (in vivo images)” value in data set [1] (bacterial cells that don't express the fptA receptor) is “not transported”; in [3] (P. aeruginosa cells) it was “transported into the P. aeruginosa cells”. The “stability after serum incubation (HPLC)” value in data set [2] is recorded as ≥ 91%. The “biodistribution levels in lungs” value in [3] (P. aeruginosa containing lungs) is given as “elevated levels”. Moreover, the “biodistribution and probe accumulation, intra-tracheal compared to intra-nasal bacterial administration” value in [3] (PA01 administered intra-tracheally vs intra-nasally) was “significant increase in biodistribution and probe accumulation”.
As for `CC(=O)N(O)CCCCCNC(=O)CCC(=O)N(O)CCCCCNC(=O)CCC(=O)N(O)CCCCCN` [DFO, desferrioxamine B], the “DFO complex, pH 3” value in data set [4] (20 mins) amounted to 1; in data set [4] (60 mins) it was 1; in [5] (20 mins), 93; in [5] (60 mins) it was 92. The “DFO complex, pH 5.5” value in data set [4] (20 mins) was 4; in data set [4] (60 mins) it was 1; in data set [5] (20 mins) it was 62; in data set [5] (60 mins), 98. Moreover, the “complexation between Ga-68 and DFO, in words” value in data set [5] (pH 3 and pH 5.5, 37° C.) is given as “high complexation”.
With gallium-68 bound pyochelin [Ga-68 Pch], in data set [6], the “stability in serum (radio chromatogram)” value is “high stability in serum”. The “uptake of probe in the lungs (in vivo imaging and ex vivo biodistribution)” value was “limited uptake” in [7] and “increased uptake” in data set [8].
As to `CN1[C@@H]([C@H]2CSC(c3ccccc3O)=N2)SC[C@H]1C(=O)O` [PcH, pyochelin], the “Cu-64 screen with siderophore, pH 3” value in data set [9] (37° C., 60 mins) worked out at 0; in data set [9] (90° C., 30 mins) it was 0. The “Cu-64 screen with siderophore, pH 5.5” value in data set [9] (37° C., 60 mins) was 85; in data set [9] (90° C., 30 mins) it was 0. The “Cu-64 screen with siderophore, pH 7.0” value in data set [9] (37° C., 60 mins) was 95; in data set [9] (90° C., 30 mins) it was 0. Besides, the “Cu-64 screen with siderophore, pH 9” value in [9] (37° C., 60 mins) was 0; in data set [9] (90° C., 30 mins) it was 0. In data set [9] (in vitro studies), the “complexation of pyochelin with copper-64, in words” value was “complexes extremely well”. Further, the “binding affinity between Cu-64 and PcH” value in data set [9] (pH 5.5 and pH 7, 37° C.) is reported as “high binding affinity”. For the same compound, the “pH 3.5 (% complex)” value in data set [10] (Manganese-52, pH 3.5, 37° C.) amounted to 1.2 % complex; in [11] (Titanium-45, pH 3.5, 37° C.), 33.1 % complex; in [12] (Lead-203, pH 3.5, 37° C.) it was 3 % complex; in [13] (Zirconium-89, pH 3.5, 37° C.), 22.8 % complex; in data set [14] (Gallium-68, pH 3.5, 37° C.), 100 % complex. The “pH 5.5 (% complex)” value in data set [10] (Manganese-52, pH 5.5, 37° C.) turned out to be 2.2 % complex; in [11] (Titanium-45, pH 5.5, 37° C.), 72.3 % complex; in data set [12] (Lead-203, pH 5.5, 37° C.), 3 % complex; in data set [13] (Zirconium-89, pH 5.5, 37° C.) it was 73.7 % complex; in data set [14] (Gallium-68, pH 5.5, 37° C.), 100 % complex. In addition, the “pH 7 (% complex)” value is given as 1.1 % complex in data set [10] (Manganese-52, pH 7, 37° C.); 60 % complex in data set [11] (Titanium-45, pH 7, 37° C.); 2 % complex in [12] (Lead-203, pH 7, 37° C.); 75.6 % complex in [13] (Zirconium-89, pH 7, 37° C.); 100 % complex in [14] (Gallium-68, pH 7, 37° C.). Also, the “association between pyochelin and manganese-52 (TLC)” value in [10] (setting [15]) is listed as “mostly poor association”. Moreover, the “association between pyochelin and titanium-45 (TLC)” value in data set [11] (setting [15]) was “mostly poor association”. For the same compound, the “association between pyochelin and lead-203 (TLC)” value in [12] (setting [15]) is listed as “mostly poor association”. The “association between pyochelin and zirconium-89 (TLC)” value in data set [13] (setting [15]) is recorded as “mostly poor association”. Besides, in [14] (all three pH conditions (3.5, 5.5, 7) at 37° C.), the “complexation of gallium-68 with pyochelin” value stood at 100%.
